Experimental data taken from patent US20200190081A1, “META SUBSTITUTED PHENYLPYRAZOLO- AND PHENYLPYRROLO- PYRIDAZINE DERIVATIVES HAVING MULTIMODAL ACTIVITY AGAINST PAIN” (ESTEVE PHARMACEUTICALS, S.A., priority 2016, published 2020).

How the values were obtained:
[1] = target: Human norepinephrine transporter (NET) (Homo sapiens, UniProt P23975); test: Binding assay to human norepinephrine transporter (NET), [3H]-Nisoxetin; conditions: human NET enriched membranes, 5 nM [3H]-Nisoxetin
Description: Binding Assay to Human Norepinephrine Transporter (NET).
Human norepinephrine transporter (NET) enriched membranes (5 μg) were incubated with 5 nM of radiolabeled [3H]-Nisoxetin in assay buffer containing 50 mM Tris-HCl, 120 mM NaCl, 5 mM KCl, pH 7.4. NSB (non specific binding) was measured by adding 10 μM of desipramine. The binding of the test compound was measured at five different concentrations. After 60 min incubation at 4° C., binding reaction was terminated by filtering through Multiscreen GF/C (Millipore) presoaked in 0.5% polyethyleneimine in Vacuum Manifold Station, followed by 3 washes with ice-cold filtration buffer containing 50 mM Tris-HCl, 0.9% NaCl, pH 7.4. Filter plates were dried at 60° C. for 1 hour and 30 μl of scintillation cocktail were added to each well before radioactivity reading. Readings were performed in a Trilux 1450 Microbeta radioactive counter (Perkin Elmer).

[2] = target: Human α2δ-1 Subunit of Cav2.2 Calcium Channel (Homo sapiens, UniProt P54289); test: Human α2δ-1 subunit of Cav2.2 calcium channel assay, [3H]-Gabapentin binding; conditions: human α2δ-1 enriched membranes, 15 nM [3H]-Gabapentin
Description: Human α2δ-1 Subunit of Cav2.2 Calcium Channel Assay
Human α2δ-1 enriched membranes (2.5 μg) were incubated with 15 nM of radiolabeled [3H]-Gabapentin in assay buffer containing Hepes-KOH 10 mM, pH 7.4. NSB (non specific binding) was measured by adding 10 μM pregabalin. The binding of the test compound was measured at five different concentrations. After 60 min incubation at 27° C., binding reaction was terminated by filtering through Multiscreen GF/C (Millipore) presoaked in 0.5% polyethyleneimine in Vacuum Manifold Station, followed by 3 washes with ice-cold filtration buffer containing 50 mM Tris-HCl, pH 7.4. Filter plates were dried at 60° C. for 1 hour and 30 μl of scintillation cocktail were added to each well before radioactivity reading. Readings were performed in a Trilux 1450 Microbeta radioactive counter (Perkin Elmer).

Human α2δ-1 Subunit of Cav2.2 Calcium Channel, sequence (P54289 25-1103): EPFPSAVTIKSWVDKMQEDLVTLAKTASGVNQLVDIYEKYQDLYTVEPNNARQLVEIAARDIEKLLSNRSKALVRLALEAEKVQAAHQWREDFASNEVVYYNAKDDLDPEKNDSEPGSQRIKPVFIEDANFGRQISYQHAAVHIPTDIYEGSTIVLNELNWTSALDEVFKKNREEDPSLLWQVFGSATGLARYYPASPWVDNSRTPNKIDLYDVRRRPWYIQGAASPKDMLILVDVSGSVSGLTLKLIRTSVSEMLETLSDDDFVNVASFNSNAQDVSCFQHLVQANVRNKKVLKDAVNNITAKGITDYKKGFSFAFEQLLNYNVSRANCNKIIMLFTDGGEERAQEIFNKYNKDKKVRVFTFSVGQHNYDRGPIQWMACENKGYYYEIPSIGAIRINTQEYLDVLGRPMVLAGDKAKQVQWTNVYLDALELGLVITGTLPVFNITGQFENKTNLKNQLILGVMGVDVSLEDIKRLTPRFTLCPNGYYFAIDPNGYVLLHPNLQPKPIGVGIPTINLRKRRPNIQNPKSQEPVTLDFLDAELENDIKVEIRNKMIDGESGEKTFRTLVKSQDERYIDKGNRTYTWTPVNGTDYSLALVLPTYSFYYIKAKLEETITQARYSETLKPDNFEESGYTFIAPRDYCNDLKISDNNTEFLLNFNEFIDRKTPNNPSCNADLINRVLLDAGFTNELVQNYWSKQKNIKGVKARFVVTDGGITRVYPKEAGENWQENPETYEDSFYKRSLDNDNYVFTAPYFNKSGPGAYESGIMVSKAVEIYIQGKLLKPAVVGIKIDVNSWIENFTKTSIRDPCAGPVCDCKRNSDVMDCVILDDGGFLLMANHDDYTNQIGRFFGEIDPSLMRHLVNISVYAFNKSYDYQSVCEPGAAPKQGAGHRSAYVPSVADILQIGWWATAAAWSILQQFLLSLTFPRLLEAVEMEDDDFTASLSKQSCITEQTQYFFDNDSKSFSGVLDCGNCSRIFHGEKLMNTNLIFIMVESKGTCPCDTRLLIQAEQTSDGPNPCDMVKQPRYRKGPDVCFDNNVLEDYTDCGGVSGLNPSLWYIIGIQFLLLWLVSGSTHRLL
Human norepinephrine transporter (NET), sequence (P23975 whole entry): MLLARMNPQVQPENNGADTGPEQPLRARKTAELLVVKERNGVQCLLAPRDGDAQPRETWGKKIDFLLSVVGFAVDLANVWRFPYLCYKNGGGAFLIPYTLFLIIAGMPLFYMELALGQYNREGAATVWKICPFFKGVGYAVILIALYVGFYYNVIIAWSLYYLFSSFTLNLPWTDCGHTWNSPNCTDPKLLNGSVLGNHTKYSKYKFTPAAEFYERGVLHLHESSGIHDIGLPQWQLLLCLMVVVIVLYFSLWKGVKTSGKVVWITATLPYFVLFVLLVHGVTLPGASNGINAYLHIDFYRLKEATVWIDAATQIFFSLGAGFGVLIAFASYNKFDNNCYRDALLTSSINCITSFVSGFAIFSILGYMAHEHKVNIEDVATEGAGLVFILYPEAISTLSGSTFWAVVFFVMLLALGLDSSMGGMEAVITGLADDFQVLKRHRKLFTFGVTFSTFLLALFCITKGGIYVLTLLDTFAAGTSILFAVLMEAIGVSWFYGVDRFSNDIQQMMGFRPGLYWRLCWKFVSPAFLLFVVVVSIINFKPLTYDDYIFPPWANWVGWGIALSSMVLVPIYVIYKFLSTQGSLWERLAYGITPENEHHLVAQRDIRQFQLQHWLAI

Row | Ki [1] | Ki [2] | SMILES
1 | < 100 nM | 500 to 5000 nM | CNCCC(Oc1cccc(-n2nc3c(N(C)C)nnc(C)c3c2C)c1)c1ccccc1 (stereo not drawn) [Example 1, N,N,3,4-Tetramethyl-2-(3-(3-(methylamino)-1-phenylpropoxy)phenyl)-2H-pyrazolo[3,4-d]pyridazin-7-amine]
2 | < 100 nM | < 500 nM | CNC(COc1cccc(-n2nc3c(N(C)C)nnc(C)c3c2C)c1)Cc1ccccc1 (stereo not drawn) [Example 47, N,N,3,4-tetramethyl-2-(3-(2-(methylamino)-3-phenylpropoxy)phenyl)-2H-pyrazolo[3,4-d]pyridazin-7-amine]
3 | 500 to 1000 nM | 500 to 5000 nM | Cc1nnc(N(C)C)c2nn(-c3cccc(O[C@@H](c4ccccc4)[C@@H]4CNCCO4)c3)c(C)c12 (racemic) [Example 13, N,N,3,4-tetramethyl-2-(3-((S)-((S)-morpholin-2-yl)(phenyl)methoxy)phenyl)-2H-pyrazolo[3,4-d]pyridazin-7-amine]
4 | 100 to 500 nM | 500 to 5000 nM | CNCCC(Oc1cccc(-n2nc3c(N(C)C)nnc(C)c3c2C)c1)c1ccc(C#N)cc1 (stereo not drawn) [Example 7, 4-(1-(3-(7-(dimethylamino)-3,4-dimethyl-2H-pyrazolo[3,4-d]pyridazin-2-yl)phenoxy)-3-(methylamino)propyl)benzonitrile]
5 | < 100 nM | 500 to 5000 nM | CNC[C@@H](Oc1cccc(-n2nc3c(N(C)C)nnc(C)c3c2C)c1)c1ccccc1 [Example 61, (S)-N,N,3,4-tetramethyl-2-(3-(2-(methylamino)-1-phenylethoxy)phenyl)-2H-pyrazolo[3,4-d]pyridazin-7-amine]
6 | 100 to 500 nM | 500 to 5000 nM | Cc1nnc(N(C)C)c2nn(-c3cccc(OC(CCN)c4ccccc4F)c3)c(C)c12 (stereo not drawn) [Example 19, 2-(3-(3-amino-1-(2-fluorophenyl)propoxy)phenyl)-N,N,3,4-tetramethyl-2H-pyrazolo[3,4-d]pyridazin-7-amine]
7 | 100 to 500 nM | ≥ 5000 nM | CNCC[C@H](Oc1cccc(-n2c(C)c3c(C)nnc(C)c3c2C)c1)c1cccc(F)c1 [Example 68, (S)-3-(3-Fluorophenyl)-N-methyl-3-(3-(1,4,5,7-tetramethyl-6H-pyrrolo[3,4-d]pyridazin-6-yl)phenoxy)propan-1-amine]
8 | 100 to 500 nM | 500 to 5000 nM | CNCCC(Oc1cccc(-n2nc3c(N(C)C)nnc(C)c3c2C)c1)c1ccc(C(N)=O)cc1 (stereo not drawn) [Example 57, 4-(1-(3-(7-(dimethylamino)-3,4-dimethyl-2H-pyrazolo[3,4-d]pyridazin-2-yl)phenoxy)-3-(methylamino)propyl)benzamide]
9 | < 100 nM | 500 to 5000 nM | CNCCC(Oc1cccc(-n2nc3c(N(C)C)nnc(C)c3c2C)c1)c1ccccc1F (stereo not drawn) [Example 30, 2-(3-(1-(2-Fluorophenyl)-3-(methylamino)propoxy)phenyl)-N,N,3,4-tetramethyl-2H-pyrazolo[3,4-d]pyridazin-7-amine]
10 | 100 to 500 nM | 500 to 5000 nM | Cc1nnc(N(C)C)c2nn(-c3cccc(OC(CCN(C)C)c4ccccc4)c3)c(C)c12 (stereo not drawn) [Example 2, 2-(3-(3-(dimethylamino)-1-phenylpropoxy)phenyl)-N,N,3,4-tetramethyl-2H-pyrazolo[3,4-d]pyridazin-7-amine]
11 | 100 to 500 nM | 500 to 5000 nM | Cc1nnc(N(C)C)c2nn(-c3cccc(OC(CCN)c4ccccc4)c3)c(C)c12 (stereo not drawn) [Example 4, 2-(3-(3-amino-1-phenylpropoxy)phenyl)-N,N,3,4-tetramethyl-2H-pyrazolo[3,4-d]pyridazin-7-amine]
12 | < 100 nM | 500 to 5000 nM | CNCCC(Oc1cccc(-n2nc3c(N(C)CCO)nnc(C)c3c2C)c1)c1ccccc1F (stereo not drawn) [Example 31, 2-((2-(3-(1-(2-fluorophenyl)-3-(methylamino)propoxy)phenyl)-3,4-dimethyl-2H-pyrazolo[3,4-d]pyridazin-7-yl)(methyl)amino)ethanol]
13 | ≥ 1000 nM | ≥ 5000 nM | Cc1nnc(N(C)C)c2nn(-c3cccc(OCC4CCNCC4)c3)c(C)c12 [Example 29, N,N,3,4-tetramethyl-2-(3-(piperidin-4-ylmethoxy)phenyl)-2H-pyrazolo[3,4-d]pyridazin-7-amine]
14 | 100 to 500 nM | 500 to 5000 nM | CNCC(Oc1cccc(-n2nc3c(N(C)C)nnc(C)c3c2C)c1)c1ccccc1F (stereo not drawn) [Example 41, 2-(3-(1-(2-fluorophenyl)-2-(methylamino)ethoxy)phenyl)-N,N,3,4-tetramethyl-2H-pyrazolo[3,4-d]pyridazin-7-amine]
15 | < 100 nM | 500 to 5000 nM | CNCC(Oc1cccc(-n2nc3c(N(C)C)nnc(C)c3c2C)c1)c1cccc(F)c1 (stereo not drawn) [Example 43, 2-(3-(1-(3-fluorophenyl)-2-(methylamino)ethoxy)phenyl)-N,N,3,4-tetramethyl-2H-pyrazolo[3,4-d]pyridazin-7-amine]
16 | 100 to 500 nM | 500 to 5000 nM | CNCCC(Oc1cccc(-n2c(C)c3c(C)nnc(C)c3c2C)c1)c1cccc(F)c1 (stereo not drawn) [Example 67, 3-(3-fluorophenyl)-N-methyl-3-(3-(1,4,5,7-tetramethyl-6H-pyrrolo[3,4-d]pyridazin-6-yl)phenoxy)propan-1-amine]
17 | 500 to 1000 nM | 500 to 5000 nM | Cc1nnc(N)c2nn(-c3cccc(OC(CCN)c4ccccc4F)c3)c(C)c12 (stereo not drawn) [Example 28, 2-(3-(3-amino-1-(2-fluorophenyl)propoxy)phenyl)-3,4-dimethyl-2H-pyrazolo[3,4-d]pyridazin-7-amine]
18 | 100 to 500 nM | 500 to 5000 nM | Cc1nnc(N(C)C)c2nn(-c3cccc(O[C@H](c4ccccc4)[C@@H]4CNCCO4)c3)c(C)c12 (racemic) [Example 12, N,N,3,4-tetramethyl-2-(3-((R)-((S)-morpholin-2-yl)(phenyl)methoxy)phenyl)-2H-pyrazolo[3,4-d]pyridazin-7-amine]
